# From publication PMC6222450, “Computer-Aided Studies for Novel Arylhydantoin 1,3,5-Triazine Derivatives as 5-HT6 Serotonin Receptor Ligands with Antidepressive-Like, Anxiolytic and Antiobesity Action In Vivo” (Molecules : A Journal of Synthetic Chemistry and Natural …, 2018)
# pKi: −log10 of the molar value. “And” between values parts separate entries of the source, which are not always exact repeats. Equal values may be shown once.
# Legend:
# [1] = Body weight of non-obese rats fed palatable diet (model of excessive eating); type: in vivo, rat
# Text: In order to determine the anorectic activity of 6 or 26, the model of excessive eating was used. Male Wistar rats (170–190 g) were housed in a pair in plastic cages in constant temperature facilities exposed to a light-dark cycle. Water and food were available ad libitum. Two groups of 6 rats were fed with diets consisting of milk chocolate with nuts, cheese, salted peanuts, and 7% condensed milk and also had access to standard feed (Labofeed B, Morawski Manufacturer Feed, Kcynia, Poland) and water ad libitum for 3 weeks. Palatable control group (palatable diet + vehicle) received vehicle (1% Tween 80, intraperitoneally), while palatable test group (palatable diet + 6 or palatable + 26) was injected (intraperitoneally) with 6 or 26 at the dose of 5 mg/kg b.w. dissolved in 1% Tween 80 (1 mL/kg). Body weights were measured daily, immediately prior to administration of drugs.
# The palatable diet contained: 100 g peanuts—614 kcal; 100 mL condensed milk—131 kcal; 100 g milk chocolate—529 kcal; 100g cheese (Greek type)—270 kcal. The standard diet contained 100 g feed—280 kcal.
# [2] = biological target: T1, 5-HT7bR (Homo sapiens, UniProt P34969); assay: Radioligand binding assay, 5-HT7bR, [3H]-5-CT; settings: human 5-HT7b receptor stably expressed in HEK-293 cells; read-out: Ki 5-HT7 [3H]-5-CT
# T1 construct: expressed in transfected cells; host or cells: HEK-293
# [3] = Lipophilicity by RP-TLC; type: physicochemical; settings: RP-18 TLC, water/methanol, extrapolated to 100% water
# Procedure: For comparison, the active arylmethyl-triazine compounds previously found (1–3) were also examined. Stationary phase RP-18 and mixtures of water/methanol […] as a mobile phase were employed. RM values were calculated from the RF data obtained. […] The regression coefficients (r^2) determined for all compounds were higher than 0.95. On the basis of the linear relationship between RM values and the volume fraction of methanol, values of RM0 in the systems analyzed corresponding to 100% of water were obtained by extrapolation. RM0 values received for the compounds tested ranged from 3.14 to 4.49 (Figure 6).
# The mobile phases were prepared by mixing the respective amounts of water and organic modifier (methanol) in a range from 40 to 90% (v/v) in 5% increments. TLC was performed on Silica gel 60RP-18 F254 plates (7 × 10 cm) plates (Merck, Darmstadt, Germany). Methanol was used to prepare the solutions of the substances. Solutions (10 µL) of the analyzed compounds were applied to the plates as 5 mm bands, 10 mm apart and 10 mm from the lower edge and sides of the plates, by using Linomat V applicator (Camag, Basel, Switzerland). The vertical chamber (Sigma–Aldrich, St. Louis, MI, USA), 20 × 10 × 18 cm in size, was saturated with mobile phase for 20 min. Development was carried out over 9 cm from the starting line at a temperature of 20 °C. Next, the plates were dried at room temperature, and the spots were observed under ultraviolet light at 254 nm and/or 366 nm (UV lamp, Camag, Basel, Switzerland). In each case, sharp and symmetric spots without a tendency for tailing were obtained. Each experiment was run in triplicate and mean RF (retardation factor) values were calculated.
# Starting from the RF values, the RM parameters were computed as described in the formula:RM = log(1/RF − 1)
# The linear correlations between the RM values of the substances and the concentration of methanol in mobile phases were calculated for each compound with the Soczewiński-Wachtmeister equation [22]:RM = RM0 + aC where C is the concentration of the organic modifier (in %) in the mobile phase, a is the slope, and RM0 is the […].
# [4] = biological target: T2, human serotonin 5-HT6R (Homo sapiens, UniProt P50406); assay: Radioligand binding assay, 5-HT6R, [3H]-LSD displacement
# T2 construct: expressed in transfected cells; host or cells: HEK-293
# Procedure: Five selective radioligands were employed (Table 1).
# Radioligand binding assays were used to determine the affinity of the synthesized compounds for human serotonin 5-HT6R, which were stably expressed in HEK-293 cells. […] Each compound was tested in triplicate at 7 to 8 different concentrations (10^−11 to 10^−4 M). The inhibition constants (Ki) were calculated using the Cheng–Prusoff equation [40], and the results are expressed as the mean of at least two independent experiments.
# [5] = Body weight of non-obese rats fed only standard diet; type: in vivo, rat; settings: rats consuming standard feed, 5 mg/kg b.w. i.p.
# Procedure: Male Wistar rats (170–190 g) were housed in a pair in plastic cages in constant temperature facilities exposed to a light-dark cycle. Control group (standard diet + vehicle) received vehicle (1% Tween 80, intraperitoneally), while the test group (standard diet + 6 or standard diet + 26) was injected (intraperitoneally) with 6 or 26 at the dose of 5 mg/kg b.w. dissolved in 1% Tween 80 (1 mL/kg). Body weights were measured daily immediately prior to administration of drugs.
# [6] = biological target: T3, 5-HT2A (Homo sapiens, UniProt P28223); assay: Radioligand binding assay, 5-HT2A, [3H]-Ketanserin; settings: human receptor stably expressed in HEK-293 cells
# T3 construct: expressed in transfected cells; host or cells: HEK-293
# T3 sequence (P28223 whole entry): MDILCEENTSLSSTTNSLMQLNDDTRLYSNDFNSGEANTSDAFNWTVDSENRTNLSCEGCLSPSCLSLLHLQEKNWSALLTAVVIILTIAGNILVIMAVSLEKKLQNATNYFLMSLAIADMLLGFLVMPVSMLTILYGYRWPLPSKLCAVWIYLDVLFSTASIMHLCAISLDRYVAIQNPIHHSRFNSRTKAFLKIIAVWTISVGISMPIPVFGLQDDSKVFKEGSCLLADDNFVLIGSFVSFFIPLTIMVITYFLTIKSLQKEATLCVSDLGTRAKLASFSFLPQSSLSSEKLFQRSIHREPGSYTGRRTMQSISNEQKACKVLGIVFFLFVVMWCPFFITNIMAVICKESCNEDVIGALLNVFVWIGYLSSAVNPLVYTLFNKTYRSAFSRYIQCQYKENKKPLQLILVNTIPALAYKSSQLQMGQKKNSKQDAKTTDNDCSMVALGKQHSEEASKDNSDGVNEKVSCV
# T2 sequence (P50406 whole entry): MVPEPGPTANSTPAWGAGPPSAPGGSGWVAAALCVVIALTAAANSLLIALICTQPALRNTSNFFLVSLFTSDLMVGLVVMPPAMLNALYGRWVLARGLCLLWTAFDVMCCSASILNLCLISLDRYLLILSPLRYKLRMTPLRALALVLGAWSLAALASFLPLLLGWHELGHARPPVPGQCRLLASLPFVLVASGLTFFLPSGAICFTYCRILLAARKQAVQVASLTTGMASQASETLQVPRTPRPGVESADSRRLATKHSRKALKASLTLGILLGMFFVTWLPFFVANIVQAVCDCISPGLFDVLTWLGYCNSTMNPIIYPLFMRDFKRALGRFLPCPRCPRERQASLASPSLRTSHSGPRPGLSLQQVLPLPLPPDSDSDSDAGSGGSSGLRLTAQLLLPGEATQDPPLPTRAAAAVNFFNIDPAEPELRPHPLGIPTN
# T1 sequence (P34969 1-432 limits assumed): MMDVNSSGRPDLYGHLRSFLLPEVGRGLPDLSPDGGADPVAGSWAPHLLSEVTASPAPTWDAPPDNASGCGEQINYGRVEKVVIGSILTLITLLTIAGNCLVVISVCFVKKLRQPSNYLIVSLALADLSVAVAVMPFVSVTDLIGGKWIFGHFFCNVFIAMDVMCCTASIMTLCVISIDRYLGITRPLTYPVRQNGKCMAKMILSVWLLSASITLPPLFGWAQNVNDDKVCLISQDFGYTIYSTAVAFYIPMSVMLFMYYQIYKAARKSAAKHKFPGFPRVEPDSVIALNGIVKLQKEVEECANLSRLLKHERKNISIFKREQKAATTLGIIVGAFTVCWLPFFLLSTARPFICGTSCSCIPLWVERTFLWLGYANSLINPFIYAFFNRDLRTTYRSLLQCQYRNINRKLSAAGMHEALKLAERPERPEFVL
smiles,measurement,setting,value
"CN1CCN(c2nc(N)nc(CN3C(=O)NC(C)(c4ccc5ccccc5c4)C3=O)n2)CC1 (stereo not shown) [Compound 26, 3-((4-Amino-6-(4-methylpiperazin-1-yl)-1,3,5-triazin-2-yl)methyl)-5-methyl-5-(naphthalen-2-yl)imidazolidine-2,4-dione]",day of experiment from which groups differed significantly,"[1]; rats fed palatable feed, 5 mg/kg b.w. i.p. daily",12 days
same,weight gain vs control group,"[1]; rats fed palatable feed, 5 mg/kg b.w. i.p., 21 days",significantly less weight gain
same,body weight vs control animals fed standard feed,"[1]; treated rats with access to preferential feed, 5 mg/kg b.w. i.p.",did not differ significantly
same,pKi,[2],6.29
same,RM0,[3],3.76
same,selectivity towards competitive G-protein coupled receptors,"[4]; 5-HT6R vs 5-HT1A, 5-HT2A, 5-HT7, D2",6–197 fold
same,selectivity over 5-HT7R,[4]; 5-HT6R vs 5-HT7R,6 fold
same,pKi,"[4]; human receptor stably expressed in HEK-293 cells, mean of at least two independent experiments, read-out: Ki 5-HT6 [3H]-LSD",> 6.70 and 7.06
same,effect on body weight,[5],No effects on body weight
same,pKi,[6],4.77
